From PubChem BioAssay AID250 (DTP/NCI, 2004)
Where “and” joins values, the source holds several entries; their conditions need not be identical. Equal values may be shown once. Toxic doses and inconclusive results are not listed. How the source made its calls: active means survival T/C of 150% or more; inactive means T/C below 125% in these data.

Tested on: BDF1 mice, L1210 leukemia sc, survival T/C
Assay: NCI In Vivo Anticancer Drug Screen. Data for tumor model L1210 Leukemia (subcutaneous) in B6D2F1 (BDF1) mice
Conditions: higher = longer survival
Protocol: The antitumor activity of compounds was measured in mice bearing transplantable tumors. Survival or tumor size were measured and the results are expressed as the measurement made in the treated group (T) divided by the measurement made in the vehicle treated control group (C). The tumor model used in this assay is L1210 Leukemia (subcutaneous) in B6D2F1 (BDF1) mice

[1] = endpoint: median survival time, dose: 3.0 mg/kg/injection, schedule: Q01DX Z (sc), vehicle: saline
[2] = endpoint: median survival time, dose: 5.0 mg/kg/injection, schedule: Q01DX Z (sc), vehicle: saline
[3] = endpoint: median survival time, dose: 14.0 mg/kg/injection, schedule: Q01DX Z (sc), vehicle: saline
[4] = endpoint: median survival time, dose: 23.0 mg/kg/injection, schedule: Q01DX Z (sc), vehicle: saline
[5] = endpoint: median survival time, dose: 39.0 mg/kg/injection, schedule: Q01DX Z (sc), vehicle: saline
[6] = endpoint: median survival time, dose: 14.0 mg/kg/injection, schedule: Q01DX Z (sc), vehicle: methylcellulose (MC)
[7] = endpoint: median survival time, dose: 23.0 mg/kg/injection, schedule: Q01DX Z (sc), vehicle: methylcellulose (MC)
[8] = endpoint: median survival time, dose: 39.0 mg/kg/injection, schedule: Q01DX Z (sc), vehicle: methylcellulose (MC)
[9] = endpoint: median survival time, dose: 65.0 mg/kg/injection, schedule: Q01DX Z (sc), vehicle: methylcellulose (MC)
[10] = endpoint: median survival time, dose: 108.0 mg/kg/injection, schedule: Q01DX Z (sc), vehicle: methylcellulose (MC)
[11] = endpoint: median survival time, dose: 180.0 mg/kg/injection, schedule: Q01DX Z (sc), vehicle: methylcellulose (MC)
[12] = endpoint: median survival time, dose: 300.0 mg/kg/injection, schedule: Q01DX Z (sc), vehicle: methylcellulose (MC)

Measured: T/C

O=C1NC(O)CCN1C1OC(CO)C(O)C1O (stereo unspecified)
inactive: endpoint: median survival time, dose: 125.0 mg/kg/injection, schedule: Q06HX018 (sc), vehicle: saline 102 % of control | endpoint: median survival time, dose: 125.0 mg/kg/injection, schedule: Q## X018 (sc), vehicle: saline 102 % of control | endpoint: median survival time, dose: 250.0 mg/kg/injection, schedule: Q06HX018 (sc), vehicle: saline 102 % of control | endpoint: median survival time, dose: 250.0 mg/kg/injection, schedule: Q## X018 (sc), vehicle: saline 102 % of control | endpoint: median survival time, dose: 500.0 mg/kg/injection, schedule: Q06HX018 (sc), vehicle: saline 108 % of control | endpoint: median survival time, dose: 500.0 mg/kg/injection, schedule: Q## X018 (sc), vehicle: saline 108 % of control | endpoint: median survival time, dose: 1000.0 mg/kg/injection, schedule: Q06HX018 (sc), vehicle: saline 107 % of control | endpoint: median survival time, dose: 1000.0 mg/kg/injection, schedule: Q## X018 (sc), vehicle: saline 107 % of control

COc1cccc2c1C(=O)c1c(O)c3c(c(O)c1C2=O)C[C@@](O)(C(C)=O)C[C@@H]3OC1CC(N)C(O)C(C)O1 (stereo partly specified)
inactive: endpoint: median survival time, dose: 1.0 mg/kg/injection, schedule: Q04DX003 (ip), vehicle: saline 88 % of control | endpoint: median survival time, dose: 2.0 mg/kg/injection, schedule: Q04DX003 (ip), vehicle: saline 90 % of control | [1] 95 % of control and 100 % of control | endpoint: median survival time, dose: 3.1 mg/kg/injection, schedule: Q01DX Z (sc), vehicle: saline 95 % of control | endpoint: median survival time, dose: 4.0 mg/kg/injection, schedule: Q04DX003 (ip), vehicle: saline 89 % of control | [2] 100 % of control and 115 % of control | endpoint: median survival time, dose: 5.0 mg/kg/injection, schedule: Q01DX Z (sc), vehicle: water 104 % of control | endpoint: median survival time, dose: 5.2 mg/kg/injection, schedule: Q01DX Z (sc), vehicle: saline 100 % of control | endpoint: median survival time, dose: 6.5 mg/kg/injection, schedule: Q04DX003 (sc), vehicle: water 105 % of control and 111 % of control | endpoint: median survival time, dose: 10.8 mg/kg/injection, schedule: Q04DX003 (sc), vehicle: water 109 % of control and 111 % of control | [3] 120 % of control | endpoint: median survival time, dose: 14.0 mg/kg/injection, schedule: Q01DX Z (sc), vehicle: water 123 % of control | [4] 110 % of control and 120 % of control | endpoint: median survival time, dose: 23.0 mg/kg/injection, schedule: Q01DX Z (sc), vehicle: water 109 % of control | endpoint: median survival time, dose: 24.0 mg/kg/injection, schedule: Q01DX Z (sc), vehicle: saline 120 % of control | endpoint: median survival time, dose: 30.0 mg/kg/injection, schedule: Q04DX003 (sc), vehicle: water 99 % of control and 100 % of control | [5] 110 % of control | endpoint: median survival time, dose: 39.0 mg/kg/injection, schedule: Q01DX Z (sc), vehicle: water 104 % of control | endpoint: median survival time, dose: 40.0 mg/kg/injection, schedule: Q01DX Z (sc), vehicle: saline 110 % of control | endpoint: median survival time, dose: 65.0 mg/kg/injection, schedule: Q01DX Z (sc), vehicle: water 95 % of control
active: endpoint: median survival time, dose: 8.4 mg/kg/injection, schedule: Q01DX Z (sc), vehicle: saline 150 % of control

CS(=O)(=O)OCC(O)C(O)C(O)C(O)COS(C)(=O)=O (stereo unspecified)
inactive: endpoint: median survival time, dose: 8.4 mg/kg/injection, schedule: Q01DX Z (sc), vehicle: methylcellulose (MC) 103 % of control | [6] 100 % of control | [7] 96 % of control | [8] 100 % of control | [9] 100 % of control | [10] 100 % of control | [11] 103 % of control | [12] 107 % of control | endpoint: median survival time, dose: 500.0 mg/kg/injection, schedule: Q01DX Z (sc), vehicle: methylcellulose (MC) 103 % of control

ClCCN(CCCl)c1ccc(CCNc2ccnc3cc(Cl)ccc23)cc1
inactive: [6] 100 % of control | [9] 100 % of control

Nc1ccc(S(=O)(=O)Nc2ccc(Nc3c4ccccc4nc4ccccc34)cc2)cc1
inactive: endpoint: median survival time, dose: 1.5 mg/kg/injection, schedule: Q01DX009 (ip), vehicle: saline with Tween-80 100 % of control | endpoint: median survival time, dose: 3.0 mg/kg/injection, schedule: Q01DX009 (ip), vehicle: saline with Tween-80 112 % of control | endpoint: median survival time, dose: 6.0 mg/kg/injection, schedule: Q01DX009 (ip), vehicle: saline with Tween-80 112 % of control | endpoint: median survival time, dose: 12.0 mg/kg/injection, schedule: Q01DX009 (ip), vehicle: saline with Tween-80 112 % of control

C[C@]12CCC(=O)C=C1CC[C@H]1[C@@H]3CC[C@](O)(C(=O)CO)[C@@]3(C)C[C@H](O)[C@@]12F
inactive: [8] 100 % of control | [9] 100 % of control | [10] 100 % of control | [11] 100 % of control | [12] 100 % of control and 118 % of control | endpoint: median survival time, dose: 833.0 mg/kg/injection, schedule: Q01DX Z (sc), vehicle: methylcellulose (MC) 112 % of control

Nc1nc(N)c2nc(CNc3ccc(C(=O)NC(CCC(=O)O)C(=O)O)cc3)cnc2n1 (stereo unspecified)
inactive: endpoint: median survival time, dose: 0.04 mg/kg/injection, schedule: Q01DX Z (sc), vehicle: other 100 % of control | endpoint: median survival time, dose: 0.05 mg/kg/injection, schedule: Q01DX Z (sc), vehicle: other 100 % of control | endpoint: median survival time, dose: 0.08 mg/kg/injection, schedule: Q01DX Z (sc), vehicle: other 100 % of control | endpoint: median survival time, dose: 0.4 mg/kg/injection, schedule: Q01DX Z (sc), vehicle: other 120 % of control | endpoint: median survival time, dose: 0.6 mg/kg/injection, schedule: Q01DX Z (sc), vehicle: other 120 % of control | endpoint: median survival time, dose: 0.89 mg/kg/injection, schedule: Q01DX Z (sc), vehicle: other 120 % of control | endpoint: median survival time, dose: 1.33 mg/kg/injection, schedule: Q01DX Z (sc), vehicle: other 110 % of control | endpoint: median survival time, dose: 2.0 mg/kg/injection, schedule: Q01DX Z (sc), vehicle: other 120 % of control

CN(Cc1cnc2nc(N[Si](C)(C)C)nc(N[Si](C)(C)C)c2n1)c1ccc(C(=O)NC(CCC(=O)O[Si](C)(C)C)C(=O)O[Si](C)(C)C)cc1 (stereo unspecified)
active: endpoint: mean survival time, dose: 1.0 mg/kg/injection, schedule: Q01DX009 (ip), vehicle: Klucel (hydroxypropylcellulose) (HPC) 150 % of control | endpoint: mean survival time, dose: 2.0 mg/kg/injection, schedule: Q01DX009 (ip), vehicle: Klucel (hydroxypropylcellulose) (HPC) 169 % of control | endpoint: mean survival time, dose: 4.0 mg/kg/injection, schedule: Q01DX009 (ip), vehicle: Klucel (hydroxypropylcellulose) (HPC) 176 % of control | endpoint: mean survival time, dose: 8.0 mg/kg/injection, schedule: Q01DX009 (ip), vehicle: Klucel (hydroxypropylcellulose) (HPC) 169 % of control | endpoint: mean survival time, dose: 8.0 mg/kg/injection, schedule: Q04DX003 (ip), vehicle: Klucel (hydroxypropylcellulose) (HPC) 156 % of control | endpoint: mean survival time, dose: 32.0 mg/kg/injection, schedule: Q04DX003 (ip), vehicle: Klucel (hydroxypropylcellulose) (HPC) 160 % of control | endpoint: mean survival time, dose: 64.0 mg/kg/injection, schedule: Q04DX003 (ip), vehicle: Klucel (hydroxypropylcellulose) (HPC) 160 % of control
inactive: endpoint: mean survival time, dose: 16.0 mg/kg/injection, schedule: Q01DX009 (ip), vehicle: Klucel (hydroxypropylcellulose) (HPC) 119 % of control

CC(=O)Nc1ccc2nc3ccc(NC(C)=O)cc3[n+](-c3ccccc3)c2c1
inactive: [7] 105 % of control | [9] 105 % of control

Cc1cccc2c(Nc3ccc(NS(C)(=O)=O)cc3)c3ccc([N+](=O)[O-])cc3nc12
active: endpoint: mean survival time, dose: 10.0 mg/kg/injection, schedule: Q01DX009 (ip), vehicle: saline 158 % of control

NC(Cc1ccc(N(CCCl)CCCl)cc1)C(=O)O (stereo unspecified)
active: [3] 155 % of control
inactive: endpoint: median survival time, dose: 1.09 mg/kg/injection, schedule: Q01DX Z (sc), vehicle: water 100 % of control | endpoint: median survival time, dose: 1.81 mg/kg/injection, schedule: Q01DX Z (sc), vehicle: water 100 % of control | [1] 100 % of control | endpoint: median survival time, dose: 3.02 mg/kg/injection, schedule: Q01DX Z (sc), vehicle: water 95 % of control | [2] 111 % of control | endpoint: median survival time, dose: 5.04 mg/kg/injection, schedule: Q01DX Z (sc), vehicle: water 100 % of control | endpoint: median survival time, dose: 8.4 mg/kg/injection, schedule: Q01DX Z (sc), vehicle: water 100 % of control | [4] 122 % of control | [5] 122 % of control | endpoint: median survival time, dose: 65.0 mg/kg/injection, schedule: Q01DX Z (sc), vehicle: saline 122 % of control | endpoint: median survival time, dose: 108.0 mg/kg/injection, schedule: Q01DX Z (sc), vehicle: saline 111 % of control

CN(C)N=Nc1ccc(CCCC(=O)NN)cc1
inactive: endpoint: median survival time, dose: 23.0 mg/kg/injection, schedule: Q01DX Z (sc), vehicle: carboxymethylcellulose (CMC) 109 % of control | endpoint: median survival time, dose: 39.0 mg/kg/injection, schedule: Q01DX Z (sc), vehicle: carboxymethylcellulose (CMC) 118 % of control | endpoint: median survival time, dose: 65.0 mg/kg/injection, schedule: Q01DX Z (sc), vehicle: carboxymethylcellulose (CMC) 109 % of control | endpoint: median survival time, dose: 108.0 mg/kg/injection, schedule: Q01DX Z (sc), vehicle: carboxymethylcellulose (CMC) 109 % of control | endpoint: median survival time, dose: 180.0 mg/kg/injection, schedule: Q01DX Z (sc), vehicle: carboxymethylcellulose (CMC) 113 % of control
